Experiments:
[1] = background statement, in words; cited from earlier work
[2] = Human pharmacokinetic study: valdecoxib blood plasma concentration by HPLC; type: in vivo
Method: Subjects drank 180 ml water one, two and three hours postdose. […] Rapid onset is a highly desirable feature of many therapies for COX-2 mediated disorders, particularly those accompanied by acute pain. […] Each subject received each of three treatments, in randomized sequence, treatments being separated by 15 days. […] Following each treatment, subjects drank 180 ml water one, two and three hours after the treatment.

COX-1 = COX-1 (Homo sapiens, UniProt P23219); settings: background statement, in words; cited from earlier work
Chain of COX-1 (P23219 24-599): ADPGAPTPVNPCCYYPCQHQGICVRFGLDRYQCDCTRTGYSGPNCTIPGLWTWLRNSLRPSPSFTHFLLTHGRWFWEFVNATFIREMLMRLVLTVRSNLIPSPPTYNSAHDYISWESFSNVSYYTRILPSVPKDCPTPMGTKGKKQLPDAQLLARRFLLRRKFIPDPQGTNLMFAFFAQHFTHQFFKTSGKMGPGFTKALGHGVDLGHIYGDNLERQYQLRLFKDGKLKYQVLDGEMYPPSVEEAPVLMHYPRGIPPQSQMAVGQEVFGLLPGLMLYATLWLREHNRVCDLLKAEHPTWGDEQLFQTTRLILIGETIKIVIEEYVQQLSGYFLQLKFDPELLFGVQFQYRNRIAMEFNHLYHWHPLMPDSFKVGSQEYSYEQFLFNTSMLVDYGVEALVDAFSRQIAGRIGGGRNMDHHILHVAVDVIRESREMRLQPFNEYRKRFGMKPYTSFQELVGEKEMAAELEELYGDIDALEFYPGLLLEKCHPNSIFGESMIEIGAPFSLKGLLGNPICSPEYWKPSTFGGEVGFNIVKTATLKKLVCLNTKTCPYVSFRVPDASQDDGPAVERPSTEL

Row | SMILES | water solubility [1] | conversion of parecoxib to valdecoxib ([2]; administered orally to a human subject) | in vitro inhibitory activity against COX-1 (COX-1) | Tmax ([2]; male, human, plasma, po, 20 mg) | half-life ([2]; male, human, plasma, po, 20 mg)
1 | CCC(=O)NS(=O)(=O)c1ccc(-c2c(-c3ccccc3)noc2C)cc1 [parecoxib] | high | rapidly and completely converted to valdecoxib | weak | – | –
2 | Cc1onc(-c2ccccc2)c1-c1ccc(S(N)(=O)=O)cc1 [valdecoxib] | substantially water-insoluble | – | weak | 3.11 h | 7.69 ± 2.45 h

Reference: patent publication US20030100595A1, “Oral dosage form of a sulfonamide prodrug” (priority 2001, published 2003)
